Results published in ChEMBL document CHEMBL3638641, “Disubstituted heteroaryl-fused pyridines” (2014).
pKd: −log10 of the molar value.

Tests used:
Orexin receptor type 2 = target: T1, Orexin receptor type 2 (Homo sapiens, UniProt O43614); test: (§1) Radioligand Binding Assay I : For crude cell membrane preparations, cells (CHO, Chinese hamster ovary or HEK, human embryonic kidney) expressing human orexin 1 or human orexin 2 receptors, were washed with HEPES (10 mM, pH 7.5), scraped off the culture plates with the same buffer, and centrifuged at 4 C for 5 min at 2500 x g. The cell pellet was either stored at -80 C or used directly. Before the experiments, cell membranes were re-suspended in binding assay buffer (10 mM HEPES, 0.5% (w/v) bovine serum albumin, pH 7.5) by homogenisation with a Polytron homogeniser at 50 Hz for 20 s. In competition experiments, cell homogenates (150μΙ) were incubated in assay buffer (10 mM HEPES, pH 7.5, 0.5 % (w/v) bovine serum albumin, 5 mM MgCI2, 1 mMCaCI2, and tween 0.05%) for 1 h at room temperature with about 100 pM of the radioligand ([125l]orexin A, 2100 Ci/mmole, 50 μΙ), and with various concentrations of compounds of the invention (50 μΙ) in triplicates.
T1 sequence (O43614 whole entry): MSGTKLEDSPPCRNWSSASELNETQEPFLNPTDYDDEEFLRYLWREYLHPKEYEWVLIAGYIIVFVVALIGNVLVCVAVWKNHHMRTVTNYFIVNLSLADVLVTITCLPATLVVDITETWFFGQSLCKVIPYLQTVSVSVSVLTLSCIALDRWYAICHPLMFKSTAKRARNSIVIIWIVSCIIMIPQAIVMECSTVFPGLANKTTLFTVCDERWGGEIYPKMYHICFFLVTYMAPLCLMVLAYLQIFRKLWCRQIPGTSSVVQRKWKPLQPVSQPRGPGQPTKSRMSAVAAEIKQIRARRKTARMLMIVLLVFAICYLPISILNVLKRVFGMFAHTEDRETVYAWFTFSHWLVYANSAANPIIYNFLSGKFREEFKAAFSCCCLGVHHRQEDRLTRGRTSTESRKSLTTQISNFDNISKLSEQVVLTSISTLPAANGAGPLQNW

[1] = target: T2, Orexin/Hypocretin receptor type 1 (Homo sapiens, UniProt O43613); test: as §1
T2 sequence (O43613 whole entry): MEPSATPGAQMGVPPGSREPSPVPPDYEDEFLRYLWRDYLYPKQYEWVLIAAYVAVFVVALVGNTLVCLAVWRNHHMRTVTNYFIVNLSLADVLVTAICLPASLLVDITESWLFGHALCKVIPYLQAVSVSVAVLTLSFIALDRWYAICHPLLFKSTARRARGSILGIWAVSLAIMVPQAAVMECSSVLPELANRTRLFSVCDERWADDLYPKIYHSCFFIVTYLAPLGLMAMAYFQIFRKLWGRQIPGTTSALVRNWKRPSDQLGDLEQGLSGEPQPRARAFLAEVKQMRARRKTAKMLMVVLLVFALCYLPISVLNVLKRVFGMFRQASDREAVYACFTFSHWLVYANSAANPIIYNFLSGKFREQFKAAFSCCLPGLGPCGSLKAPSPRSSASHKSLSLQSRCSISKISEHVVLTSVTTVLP

pKd (Orexin receptor type 2): 6.32 | pKd [1]: 6.94
Compound: C[C@H](NC(=O)COc1cc(C(F)(F)F)c2c(-c3cccc(Cl)c3)nn(C)c2n1)c1ccccc1
